In assay [1] the test system is Human mast cells (CHMC cells). As to the kind of experiment: Tryptase release assay (mast cell degranulation induced by anti-IgG FcγR cross-linking). To be noted: IC50 of tryptase release from human mast cells after anti-IgG stimulation, read-out: LD Tryptase. Type of assay: cell-based. The method, then: Compounds were assayed for inhibition of mast cell activation induced by FcγR cross-linking by measuring the activity of tryptase released upon degranulation as follows:
Human mast cells were cultured and differentiated from […] progenitor cell as described in U.S. Patent Publication No. 2005-234049, incorporated herein by reference. For example, 65 μl of various concentrations of the compound to be assayed were prepared in MT (137 mM NaCl, 2.7 mM KCl, 1.8 mM CaCl2, 1.0 mM MgCl2, 5.6 mM Glucose, 20 mM Hepes (pH 7.4), 0.1% Bovine Serum Albumin, (Sigma A4503)) containing 2% MeOH and 1% DMSO, or control buffer were added to duplicate 96-well V-bottom plates. Pelleted and resuspended (in warm MT) CHMC cells (65 μl) were added to each 96-well plate, mixed and incubated for 1 hour at 37° C. 25 μl of 6× anti-IgG Rabbit anti-human IgG, Affinity purified (Bethyl Laboratories Cat No. A80-105A3) final concentration 1 μg/ml, was added to the test wells. MT (25 μl) was added to control wells. After a 60-minute incubation at 37° C., cells and cell debris were pelleted by centrifugation at 1000 rpm for 10 min and tryptase and leukotriene C4 levels were measured.
To measure tryptase levels, 25 μl of supernatant from each well was transferred to a fresh 96-well black bottom plate, to which 100 μl of fresh tryptase substrate solution [(Z-Ala-Lys-Arg-AMC2TFA; Enzyme Systems Products, #AMC-246)] 1:2000 in tryptase assay buffer [0.1 M Hepes (pH 7.5), 10% w/v Glycerol, 10 μM Heparin (Sigma H-4898) 0.01% NaN3] was added. After 30 minute incubation at room temperature, the optical density of the plates is measured at 355 nm/460 nm on a spectrophotometric plate reader. Table 2 provides the IC50 values.

For another assay, the target named is T1, Syk kinase (Homo sapiens, UniProt P43405).
T1 construct: purchased Millipore 14-314
The assay is described as follows: ELISA-based Syk kinase assay (phosphorylation of HS1 peptide substrate by isolated Syk kinase). Type of assay: biochemical. To be noted: IC50 of Syk kinase inhibition; 2 μM ATP, 2 μM peptide substrate. The method, then: Compounds were tested for the ability to inhibit Syk kinase catalyzed phosphorylation of a peptide substrate in an assay with isolated Syk kinase.
An assay was carried out in a Costar white 96 well plate (Fisher Scientific, Cat No. 07-200-591) coated overnight with 0.01 mg/ml Neutravidin (Pierce, 100 μl/well) at 4° C. Neutravidin pre-coated 96 well plates were blocked with 2% BSA in PBST buffer for at least 1 hour before starting the assay at room temperature. Serially diluted compound stock solution containing a subject compound was prepared separately in DMSO solution starting from 300 μM and 2 μl of this diluted compound (3% DMSO final concentration) was added directly to neutravidin coated assay plate containing 55.5 μl/well of kinase reaction buffer composed of 20 mM HEPES, pH 7.4, 5 mM MgCl2, 2 mM MnCl2, 1 mM DTT, 0.01% Tween 20 pre-mixed with ATP and kinase substrate (HS1 peptide). Reaction was initiated by adding of 2.5 μl/well Syk kinase (Millipore, Cat No. 14-314) resulting in a final reaction volume of 60 μl and then the reaction was allowed to continue for 30 minutes at room temperature. Final enzyme reaction conditions were 20 mM HEPES, pH 7.4, 5 mM MgCl2, 2 mM MnCl2, 1 mM DTT, 0.01% Tween 20, 0.25 ng Syk, 2 μM ATP, 2 μM peptide substrate (Biotin-EQEDEPEGDYEEVLE-CONH2, SynPep Corporation). After completing the reaction, assay plate was washed three times with PBST and incubated for 1 hour at room temperature with 100 μl/well of phosphopeptide detection antibody solution prepared by mixing 1-1000 diluted mouse anti-pTyr monoclonal antibody (Cell Signal Technology, Cat No. 9411) and 1-1000 diluted goat HRP-conjugated anti-mouse IgG (Jackson Immunoresearch, Cat. No. 115-035-003). Before developing the plate with supersignal ELISA pico chemiluminescent substrate (Pierce), plate was washed three times again with PBST and were read on a SpectraMax M5 microplate reader (Moleculear Devices).

In the case of `N#Cc1cnn2c(Nc3ccc(N4CCOCC4)cc3)c(-c3ccc4c(c3)NC(=O)CO4)[nH]c12` [Compound 43], the IC50 in assay [1] was 11 to 100 µM; at Syk kinase, 3 to 25 µM.
Taken in the same sequence, the figures for `COc1cccc(Nc2c(-c3ccc4cc[nH]c4c3)[nH]c3c(C#N)cnn23)c1` [Compound 44] were less than 10 µM and 3 to 25 µM.
For `N#Cc1cnn2c(Nc3ccc(Br)cc3)c(-c3ccc4c(c3)NC(=O)CO4)[nH]c12` [Compound 45], the IC50 lay within 101 to 5000 µM in assay [1] and 0.51 to 2.99 µM at Syk kinase.
Regarding `CC(=O)Nc1cccc(Nc2c(-c3ccc4cc[nH]c4c3)[nH]c3c(C#N)cnn23)c1` [Compound 47], the IC50 was less than 10 µM in assay [1] and 0.51 to 2.99 µM on Syk kinase.
On the same counts, the results for `COc1ccc(Nc2c(-c3ccc(S(C)(=O)=O)cc3)[nH]c3c(C#N)cnn23)cc1OC` [Compound 48] are less than 10 µM and 0.51 to 2.99 µM.
As to `COc1cc(-c2[nH]c3c(C#N)cnn3c2Nc2ccc3c(c2)OCCO3)cc(OC)c1OC` [Compound 49], the IC50 in assay [1] was less than 10 µM; on Syk kinase it was 0.51 to 2.99 µM.
On the same counts, the results for `N#Cc1cnn2c(Nc3ccc4c(c3)OCCO4)c(-c3ccc4c(c3)NC(=O)CO4)[nH]c12` [Compound 50] are more than 5000 µM and 0.51 to 2.99 µM.
On the same counts, the results for `COc1ccc(Nc2c(-c3ccc4c(c3)OCO4)[nH]c3c(C#N)cnn23)cc1OC` [Compound 51] are less than 10 µM and 0.51 to 2.99 µM.
Taken in the same sequence, the figures for `COc1ccc(-c2[nH]c3c(C#N)cnn3c2Nc2ccc(OC)c(OC)c2)cc1F` [Compound 52] were more than 5000 µM and 3 to 25 µM.
On to `COc1cc(-c2[nH]c3c(C#N)cnn3c2Nc2ccc(F)c(F)c2)cc(OC)c1OC` [Compound 64], for which the IC50 in assay [1] is less than 10 µM; at Syk kinase it was 0.51 to 2.99 µM.
On the same counts, the results for `COc1cc(-c2[nH]c3c(C#N)cnn3c2Nc2ccc(CNC(C)=O)cc2)cc(OC)c1OC` [Compound 72] are less than 10 µM and 0.51 to 2.99 µM.
In the case of `COC(=O)COc1ccc(-c2[nH]c3c(C#N)cnn3c2Nc2ccc3c(c2)OCCO3)cc1OC` [Compound 85], the results for the IC50 (in assay [1]; at Syk kinase) were less than 10 µM and less than 0.5 µM, respectively.
Take `COc1cc(Nc2c(-c3cc(OC)c(OC)c(OC)c3)[nH]c3c(C#N)cnn23)ccc1F` [Compound 87]: the IC50 in assay [1] was less than 10 µM; against Syk kinase, less than 0.5 µM.
Take `N#Cc1cnn2c(Nc3ccc(Br)cc3)c(-c3ccc(C(N)=O)cc3)[nH]c12` [Compound 98]: the IC50 in assay [1] was 101 to 5000 µM; against Syk kinase, 0.51 to 2.99 µM.
Regarding `COc1ccc(Nc2c(-c3cc(O)c(OC)c(OC)c3)[nH]c3c(C#N)cnn23)cc1OC` [Compound 100], the IC50 was less than 10 µM in assay [1] and less than 0.5 µM on Syk kinase.
For `COc1ccc(Nc2c(-c3ccc(OCCO)c(OC)c3)[nH]c3c(C#N)cnn23)cc1OC` [Compound 101], the IC50 in assay [1] is less than 10 µM; against Syk kinase, 0.51 to 2.99 µM.
On the same counts, the results for `COc1ccc(Nc2c(-c3ccc(C(N)=O)cc3)[nH]c3c(C#N)cnn23)cc1OC` [Compound 103] are 11 to 100 µM and less than 0.5 µM.
For `COc1ccc(Nc2c(-c3ccc(N4CCOCC4)cc3)[nH]c3c(C#N)cnn23)cc1OC` [Compound 104], the IC50 was less than 10 µM in assay [1] and 0.51 to 2.99 µM at Syk kinase.
On the same counts, the results for `COc1ccc(Nc2c(-c3cccc(N4CCOCC4)c3)[nH]c3c(C#N)cnn23)cc1OC` [Compound 105] are 11 to 100 µM and 0.51 to 2.99 µM.
On the same counts, the results for `COc1ccc(Nc2c(-c3ccc(OC)c(OC4CCCC4)c3)[nH]c3c(C#N)cnn23)cc1OC` [Compound 106] are less than 10 µM and less than 0.5 µM.
Taken in the same sequence, the figures for `COc1ccc(Nc2c(-c3ccc(OCCN4CCCC4=O)cc3)[nH]c3c(C#N)cnn23)cc1OC` [Compound 107] were less than 10 µM and 0.51 to 2.99 µM.
`COCCOc1ccc(-c2[nH]c3c(C#N)cnn3c2Nc2ccc(OC)c(OC)c2)cc1OC` [Compound 108]: the IC50 in assay [1] was less than 10 µM; against Syk kinase, less than 0.5 µM.
Taken in the same sequence, the figures for `COc1cc(Nc2c(-c3ccc4c(c3)NC(=O)CO4)[nH]c3c(C#N)cnn23)ccc1F` [Compound 109] were 11 to 100 µM and 0.51 to 2.99 µM.
Taken in the same sequence, the figures for `COc1ccc(Nc2c(-c3cccc(O)c3)[nH]c3c(C#N)cnn23)cc1OC` [Compound 112] were less than 10 µM and 0.51 to 2.99 µM.
Regarding `COC(=O)COc1ccc(-c2[nH]c3c(C#N)cnn3c2Nc2ccc(OC)c(OC)c2)cc1` [Compound 113], the results for the IC50 (in assay [1]; against Syk kinase) were less than 10 µM and 0.51 to 2.99 µM, respectively.
Taken in the same sequence, the figures for `COc1ccc(Nc2c(-c3cccc(NS(C)(=O)=O)c3)[nH]c3c(C#N)cnn23)cc1OC` [Compound 114] were less than 10 µM and 0.51 to 2.99 µM.
On the same counts, the results for `COc1cc(Nc2c(-c3ccc(OCCO)c(OC)c3)[nH]c3c(C#N)cnn23)ccc1F` [Compound 116] are less than 10 µM and less than 0.5 µM.
On the same counts, the results for `COc1cc(Nc2c(-c3ccc(C(N)=O)cc3)[nH]c3c(C#N)cnn23)ccc1F` [Compound 117] are more than 5000 µM and 0.51 to 2.99 µM.
`COc1cc(Nc2c(-c3cc(O)c(OC)c(OC)c3)[nH]c3c(C#N)cnn23)ccc1F` [Compound 118]: the IC50 in assay [1] is less than 10 µM; against Syk kinase it was less than 0.5 µM.
On the same counts, the results for `COc1cc(Nc2c(-c3ccc(OC)c(OC4CCCC4)c3)[nH]c3c(C#N)cnn23)ccc1F` [Compound 119] are less than 10 µM and 0.51 to 2.99 µM.
Take `COc1cc(-c2[nH]c3c(C#N)cnn3c2Nc2ccc(F)c(C)c2)cc(OC)c1OC` [Compound 120]: the results for the IC50 (in assay [1]; against Syk kinase) were less than 10 µM and 0.51 to 2.99 µM, respectively.
Taken in the same sequence, the figures for `COCCOc1ccc(-c2[nH]c3c(C#N)cnn3c2Nc2ccc(F)c(OC)c2)cc1OC` [Compound 122] were less than 10 µM and 0.51 to 2.99 µM.
Taken in the same sequence, the figures for `COc1ccc(Nc2c(-c3ccc(OCCN4CCOCC4)cc3)[nH]c3c(C#N)cnn23)cc1OC` [Compound 124] were less than 10 µM and 0.51 to 2.99 µM.
Regarding `COc1ccc(Nc2c(-c3ccc(OC)c(OCC(N)=O)c3)[nH]c3c(C#N)cnn23)cc1OC` [Compound 125], the IC50 in assay [1] is less than 10 µM; on Syk kinase it was 0.51 to 2.99 µM.
On to `COc1ccc(Nc2c(-c3cc(OC)c(OC)c(OC)c3)[nH]c3c(C#N)cnn23)cc1F` [Compound 127], for which the IC50 in assay [1] is less than 10 µM; at Syk kinase, less than 0.5 µM.
Taken in the same sequence, the figures for `COc1cc(Nc2c(-c3cc(OC)c(OC)c(OC)c3)[nH]c3c(C#N)cnn23)ccc1Cl` [Compound 132] were less than 10 µM and 0.51 to 2.99 µM.
Taken in the same sequence, the figures for `COc1cc(-c2[nH]c3c(C#N)cnn3c2Nc2ccc(F)c(OC(C)C)c2)cc(OC)c1OC` [Compound 133] were less than 10 µM and 0.51 to 2.99 µM.
On the same counts, the results for `COc1ccc(Nc2c(-c3ccc(OCC(N)=O)c(OC)c3)[nH]c3c(C#N)cnn23)cc1OC` [Compound 135] are less than 10 µM and less than 0.5 µM.
With `COc1ccc(Nc2c(-c3cc(C)c(OC)c(C)c3)[nH]c3c(C#N)cnn23)cc1OC` [Compound 136], the IC50 in assay [1] was less than 10 µM; against Syk kinase, 0.51 to 2.99 µM.
On to `COc1cc(-c2[nH]c3c(C#N)cnn3c2Nc2ccc3c(c2)NC(=O)CO3)cc(OC)c1OC` [Compound 137], for which the IC50 in assay [1] is less than 10 µM; against Syk kinase, less than 0.5 µM.

The values are drawn from patent US8377945B2, “Small molecule inhibitors of spleen tyrosine kinase (SYK)” (Rigel Pharmaceuticals Inc., priority 2009, dated 2013).
